Assay results published in ChEMBL document CHEMBL1201862, “PubChem BioAssay data set” (2004).
Values joined by “and” are separate entries in the source; they are usually repeats but may differ in a detail not shown here. Equal entries are not always repeated.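 Five compound concentrations were applied to cells in 96-well plates for 48 hours; endpoints were derived by simple linear interpolation of the resulting dose-response curve. Abbreviation: GI50, concentration required for 50% inhibition of growth.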 Active and inactive are the calls of the source. Cut-off read from the data, not from the text of the source: active = GI50 up to about 1.1 µM and inactive = higher.

Key:
Experiment in all cases: NCI anticancer screen, dose series, 48 h
786-0 = system: 786-0
A498 = system: A498
BT-549 = system: BT-549
CCRF-CEM = system: CCRF-CEM
DU-145 = system: DU-145
HCC 2998 = system: HCC 2998
HCT-15 = system: HCT-15
HL-60 = system: HL-60
HOP-62 = system: HOP-62
Hs-578T = system: Hs-578T
K562 = system: K562
LOX IMVI = system: LOX IMVI
MCF7 = system: MCF7
MOLT-4 = system: MOLT-4
Malme-3M = system: Malme-3M
NCI-H226 = system: NCI-H226
NCI-H23 = system: NCI-H23
NCI-H460 = system: NCI-H460
NCI-H522 = system: NCI-H522
NCI/ADR-RES = system: NCI/ADR-RES
OVCAR-4 = system: OVCAR-4
OVCAR-5 = system: OVCAR-5
RPMI-8226 = system: RPMI-8226
RXF 393 = system: RXF 393
SF-539 = system: SF-539
SK-MEL-2 = system: SK-MEL-2
SK-OV-3 = system: SK-OV-3
SR = system: SR
SW-620 = system: SW-620
T47D = system: T47D
TK-10 = system: TK-10
UACC-257 = system: UACC-257
UACC-62 = system: UACC-62
UO-31 = system: UO-31
A549 = system: A549
ACHN = system: ACHN
CAKI-1 = system: CAKI-1
COLO 205 = system: COLO 205
EKVX = system: EKVX
HCT-116 = system: HCT-116
HOP-92 = system: HOP-92
HT-29 = system: HT-29
IGROV-1 = system: IGROV-1
KM12 = system: KM12
MDA-MB-231 = system: MDA-MB-231
MDA-MB-435 = system: MDA-MB-435
OVCAR-8 = system: OVCAR-8
PC-3 = system: PC-3
SF-268 = system: SF-268
SF-295 = system: SF-295
SK-MEL-28 = system: SK-MEL-28
SK-MEL-5 = system: SK-MEL-5
SN12C = system: SN12C
SNB-19 = system: SNB-19
SNB-75 = system: SNB-75
U-251 = system: U-251
M14 = system: M14
MDA-N = system: MDA-N
OVCAR-3 = system: OVCAR-3

Structure (SMILES): c1ccc(P(CCP(CCP(c2ccccc2)c2ccccc2)c2ccccc2)CCP(c2ccccc2)c2ccccc2)cc1 (stereo not given)
- GI50 (786-0): 1.82 µM (inactive)
- GI50 (A498): > 10 µM (inactive) and > 8.65 µM (inactive)
- GI50 (BT-549): > 10 µM (inactive)
- GI50 (CCRF-CEM): 1.23 µM (inactive)
- GI50 (DU-145): > 9.16 µM (inactive)
- GI50 (HCC 2998): 2.06 µM (inactive)
- GI50 (HCT-15): 9.77 µM
- GI50 (HL-60): 0.63 µM (active)
- GI50 (HOP-62): > 10 µM (inactive)
- GI50 (Hs-578T): 3.85 µM (inactive)
- GI50 (K562): 1.28 µM (inactive)
- GI50 (LOX IMVI): 1.51 µM (inactive)
- GI50 (MCF7): 1.67 µM (inactive)
- GI50 (MOLT-4): 1.41 µM (inactive)
- GI50 (Malme-3M): > 10 µM (inactive)
- GI50 (NCI-H226): > 5.22 µM (inactive)
- GI50 (NCI-H23): > 5.38 µM (inactive)
- GI50 (NCI-H460): 1.72 µM (inactive)
- GI50 (NCI-H522): 2.69 µM (inactive)
- GI50 (NCI/ADR-RES): > 10 µM (inactive) and > 5.58 µM (inactive)
- GI50 (OVCAR-4): 7.33 µM (inactive)
- GI50 (OVCAR-5): > 5.45 µM (inactive)
- GI50 (RPMI-8226): 1.68 µM (inactive)
- GI50 (RXF 393): > 5.6 µM (inactive)
- GI50 (SF-539): > 6.25 µM (inactive)
- GI50 (SK-MEL-2): 9.44 µM (inactive)
- GI50 (SK-OV-3): > 10 µM (inactive)
- GI50 (SR): 1.1 µM (active)
- GI50 (SW-620): 5.05 µM (inactive)
- GI50 (T47D): 2.12 µM (inactive)
- GI50 (TK-10): > 10 µM (inactive)
- GI50 (UACC-257): > 10 µM (inactive)
- GI50 (UACC-62): 6.55 µM (inactive)
- GI50 (UO-31): > 10 µM (inactive) and > 6.82 µM (inactive)

Structure (SMILES): O=C1NC(=S)N(c2ccccc2)C1=O
- GI50 (786-0): > 100 µM (inactive)
- GI50 (A498): > 100 µM (inactive)
- GI50 (A549): > 100 µM (inactive)
- GI50 (ACHN): > 100 µM (inactive)
- GI50 (CAKI-1): > 100 µM (inactive)
- GI50 (CCRF-CEM): > 100 µM (inactive)
- GI50 (COLO 205): > 100 µM (inactive)
- GI50 (DU-145): > 100 µM (inactive)
- GI50 (EKVX): > 100 µM (inactive)
- GI50 (HCC 2998): > 100 µM (inactive)
- GI50 (HCT-116): > 100 µM (inactive)
- GI50 (HCT-15): > 100 µM
- GI50 (HL-60): > 100 µM (inactive)
- GI50 (HOP-62): > 100 µM (inactive)
- GI50 (HOP-92): > 100 µM (inactive)
- GI50 (HT-29): > 100 µM (inactive)
- GI50 (Hs-578T): > 100 µM (inactive)
- GI50 (IGROV-1): > 100 µM (inactive)
- GI50 (K562): > 100 µM (inactive)
- GI50 (KM12): > 100 µM (inactive)
- GI50 (LOX IMVI): > 100 µM (inactive)
- GI50 (MDA-MB-231): > 100 µM (inactive)
- GI50 (MDA-MB-435): > 100 µM (inactive)
- GI50 (MOLT-4): > 100 µM (inactive)
- GI50 (Malme-3M): > 100 µM (inactive)
- GI50 (NCI-H226): > 100 µM (inactive)
- GI50 (NCI-H23): > 100 µM (inactive)
- GI50 (NCI-H460): > 100 µM (inactive)
- GI50 (NCI-H522): 3.79 µM (inactive)
- GI50 (NCI/ADR-RES): > 100 µM (inactive)
- GI50 (OVCAR-4): > 100 µM (inactive)
- GI50 (OVCAR-5): > 100 µM (inactive)
- GI50 (OVCAR-8): > 100 µM (inactive)
- GI50 (PC-3): > 100 µM (inactive)
- GI50 (RPMI-8226): > 100 µM (inactive)
- GI50 (RXF 393): > 100 µM (inactive)
- GI50 (SF-268): > 100 µM (inactive)
- GI50 (SF-295): > 100 µM (inactive)
- GI50 (SF-539): > 100 µM (inactive)
- GI50 (SK-MEL-28): > 100 µM (inactive)
- GI50 (SK-MEL-2): > 100 µM (inactive)
- GI50 (SK-MEL-5): > 100 µM (inactive)
- GI50 (SK-OV-3): > 100 µM (inactive)
- GI50 (SN12C): > 100 µM (inactive)
- GI50 (SNB-19): > 100 µM (inactive)
- GI50 (SNB-75): > 100 µM (inactive)
- GI50 (SR): > 100 µM (inactive)
- GI50 (SW-620): > 100 µM (inactive)
- GI50 (T47D): > 100 µM (inactive)
- GI50 (TK-10): > 100 µM (inactive)
- GI50 (U-251): > 100 µM (inactive)
- GI50 (UACC-257): > 100 µM (inactive)
- GI50 (UACC-62): > 100 µM (inactive)
- GI50 (UO-31): > 100 µM (inactive)

Structure (SMILES): COC(=O)c1c2c(cc3c1CC1(Cc4ccccc4C1=O)C3)CCC2 (stereo not given)
- GI50 (786-0): 25.2 µM (inactive)
- GI50 (A498): 22.4 µM (inactive)
- GI50 (A549): 20.7 µM (inactive)
- GI50 (ACHN): 23.9 µM (inactive)
- GI50 (CAKI-1): 10.7 µM (inactive)
- GI50 (CCRF-CEM): 28.2 µM (inactive)
- GI50 (COLO 205): 3.52 µM (inactive)
- GI50 (DU-145): > 100 µM (inactive)
- GI50 (EKVX): 15.9 µM (inactive)
- GI50 (HCC 2998): 36.6 µM (inactive)
- GI50 (HCT-116): 26.6 µM (inactive)
- GI50 (HCT-15): 21.4 µM
- GI50 (HL-60): 16 µM (inactive)
- GI50 (HOP-62): 42.8 µM (inactive)
- GI50 (HOP-92): 23 µM (inactive)
- GI50 (HT-29): 17.1 µM (inactive)
- GI50 (Hs-578T): 50 µM (inactive)
- GI50 (IGROV-1): 26.6 µM (inactive)
- GI50 (K562): 8.34 µM (inactive)
- GI50 (KM12): 25.5 µM (inactive)
- GI50 (LOX IMVI): 31 µM (inactive)
- GI50 (M14): 31.3 µM (inactive)
- GI50 (MCF7): 43.8 µM (inactive)
- GI50 (MDA-MB-231): 21.4 µM (inactive)
- GI50 (MDA-MB-435): 13.5 µM (inactive)
- GI50 (MDA-N): 8.55 µM (inactive)
- GI50 (MOLT-4): 12.2 µM (inactive)
- GI50 (Malme-3M): 20.3 µM (inactive)
- GI50 (NCI-H226): 2.58 µM (inactive)
- GI50 (NCI-H23): 38.8 µM (inactive)
- GI50 (NCI-H460): 29.9 µM (inactive)
- GI50 (NCI-H522): 49.8 µM (inactive)
- GI50 (NCI/ADR-RES): 19.8 µM (inactive)
- GI50 (OVCAR-3): 19.5 µM (inactive)
- GI50 (OVCAR-4): 36.1 µM (inactive)
- GI50 (OVCAR-5): > 100 µM (inactive)
- GI50 (OVCAR-8): 44.1 µM (inactive)
- GI50 (PC-3): 55.7 µM (inactive)
- GI50 (RPMI-8226): 18.6 µM (inactive)
- GI50 (RXF 393): 19.5 µM (inactive)
- GI50 (SF-268): 48.8 µM (inactive)
- GI50 (SF-295): 55.6 µM (inactive)
- GI50 (SF-539): 71.1 µM (inactive)
- GI50 (SK-MEL-28): 93.3 µM (inactive)
- GI50 (SK-MEL-2): 43.7 µM (inactive)
- GI50 (SK-MEL-5): 15.3 µM (inactive)
- GI50 (SK-OV-3): > 100 µM (inactive)
- GI50 (SN12C): 25.7 µM (inactive)
- GI50 (SNB-19): > 100 µM (inactive)
- GI50 (SNB-75): 19.4 µM (inactive)
- GI50 (SR): 15.6 µM (inactive)
- GI50 (SW-620): 31.8 µM (inactive)
- GI50 (T47D): 52.7 µM (inactive)
- GI50 (TK-10): 51.3 µM (inactive)
- GI50 (U-251): 56.5 µM (inactive)
- GI50 (UACC-257): 43.3 µM (inactive)
- GI50 (UO-31): 13.9 µM (inactive)
